Source: publication PMC10610214 (Pharmaceuticals, 2023)

Assays:
[1] = biological target: T1, BuChE (Equus caballus, UniProt P81908); test: Kinetic study of BuChE inhibition (Lineweaver–Burk); format: biochemical
T1 construct: BuChE (from equine serum); purchased Sigma Chemical Company (St. Louis, MO, USA); host or cells: equine serum
Experimental: The specific steps are similar to those described in Section 4.3 for the enzyme inhibition assay. In brief, 100 μL of different concentrations of 4h (0, 0.075, 0.15, and 0.3 μM)/4h (0, 3, 6, and 12 μM) and 100 μL of different concentrations of AChE/BuChE (1, 0.5, 0.25, 0.125, and 0.0625 U/mL) were added into 48-well plates and then co-incubated at 37 °C for 30 min. After the end of incubation, 100 μL of ATCI/BTCI (0.35 mM), 100 μL of PB solution, and 100 μL DTNB (0.35 mM) were added, and then changes in absorbance were measured at different times at 412 nm by multifunctional microplate reader, and the catalytic reaction rate of AChE/BuChE was determined. All concentrations are final. With the enzyme reaction rate V as the ordinate and AChE/BuChE concentration as the abscissa, the curve was drawn to determine the reversibility of the compound to AChE/BuChE.
In order to determination of inhibition types and the constant of AChE/BuChE, the concentration of AChE/BuChE (0.5 U/mL) in the reaction system was fixed. Five different substrate concentrations and four different concentrations of test compound 4h were used to measure the absorbance changes at different times at 412 nm. The reciprocal of the enzymatic reaction rate (1/V) was taken as the ordinate, and the reciprocal of the substrate ATCI/BTCI concentration (1/S) was taken as the abscissa.
[…]. […]

[2] = tested on: iNOS; test: iNOS expression in LPS-stimulated BV2 cells (Western blot); format: cell-based; conditions: 1, 2, 4 μM
Experimental: BV2 cells were seeded into a 6-well plate at a density of 3.0 × 10^5 cells per well. After incubation overnight, the old medium was discarded. Then, the cells were pretreated with various concentrations (1, 2, and 4 μM) of 4h for 1 h and then co-incubated with LPS (1 μg/mL) for 24 h. After incubation was completed, the cells were washed twice with PBS, and 300 μL of cell lysis buffer (RIRA lysis buffer, phosphatase inhibitor, protease inhibitor, and PMSF) was added to each well. The cells were then incubated on ice for 30 min and centrifuged at 12,000 rpm at 4 °C for 30 min to collect the supernatant. The protein content in the supernatant was detected using the BCA protein detection kit (Beyotime, Shanghai, China). Total proteins were separated by 10% SDS-PAGE and then transferred from the gel to a PVDF membrane (Sigma-Aldrich, Shanghai, China). The membranes were blocked in TBST solution containing 5% skimmed milk for 2 h. Next, the membranes were washed three times (TBST) and incubated with primary antibody dilution (Cell Signaling Technologies, Boston, MA, USA) overnight at 4 °C. Then, they were washed another three times (TBST), incubated with the secondary antibody at room temperature for 90 min, and then washed three times with TBST. The blots were visualized by a chemiluminescence imager (Tanon 5200, Shanghai, China).

[3] = LD50 determination in mice (Bliss method); format: in vivo, C57BL mice; conditions: male, C57BL, mouse, in vivo, po, intragastric administration 7 days, Bliss method, read-out: LD50 (95% confidence limit)
Experimental: (§1) Male C57BL mice (18–23 g; 8 weeks old) were purchased from the Experimental Center of Anhui University of Traditional Chinese Medicine. Mice were reared in a temperature and humidity controlled environment with free access to food and water, with self-adaptive rearing for 4 days.
(§2) Thirty mice were randomly divided into five groups, and the death of each group was counted after 7 days of intragastric administration (100, 80, 64, 51.2, 40.96 mg/kg). The Bliss method was used to calculate the LD50 and 95% confidence limit.

[4] = tested on: mice; test: LD50 determination in mice (Bliss method); format: in vivo, C57BL mice; conditions: intragastric 7 days
Experimental: as §1, §2

[5] = tested on: BV2 cells; test: Cytotoxicity in BV2 cells (MTT); format: cell-based
Experimental: The cytotoxicity and neuroprotective effects of the compounds on PC12 cells were evaluated by MTT assay. PC12 cells were seeded into a 96-well plate at a density of 5.0 × 10^3 cells per well. After the cells were incubated overnight, the old medium was discarded. The cells were incubated for another 24 h with fresh medium containing compounds at a concentration of 30 or 50 μM. A total of 20 μL of MTT solution (5 mg/mL, Sigma-Aldrich, Shanghai, China) was then added per well, and the cells were incubated for an additional 4 h. Afterwards, the supernatant was removed and 150 μL of DMSO was added to solubilize formazan crystals. The 96-well plate was placed on the shaker for 10–15 min, and then the absorbance at 492 nm was measured by a microplate reader.
The cytotoxicity of compounds on BV2 cells were evaluated by MTT assay and similar to those described in Section 2.5. The NO concentrations in medium were determined using Griess Reagent assay (Beyotime) in accordance with a previously reported method. Nitrite is reduced to nitrogen oxide using Griess Reagent I. Nitrogen oxide then reacts with Griess Reagent II forming a stable product that can be detected by its absorbance at […]. The two-step assay is simple, fast, and can detect nitrite levels as low as 1 nmol/well. BV2 cells were seeded into a 48-well plate at a density of 6.0 × 10^4 cells per well. […]

[6] = tested on: SY5Y cells; test: Cytotoxicity in SY5Y cells (MTT); format: cell-based

T1 sequence (P81908 whole entry): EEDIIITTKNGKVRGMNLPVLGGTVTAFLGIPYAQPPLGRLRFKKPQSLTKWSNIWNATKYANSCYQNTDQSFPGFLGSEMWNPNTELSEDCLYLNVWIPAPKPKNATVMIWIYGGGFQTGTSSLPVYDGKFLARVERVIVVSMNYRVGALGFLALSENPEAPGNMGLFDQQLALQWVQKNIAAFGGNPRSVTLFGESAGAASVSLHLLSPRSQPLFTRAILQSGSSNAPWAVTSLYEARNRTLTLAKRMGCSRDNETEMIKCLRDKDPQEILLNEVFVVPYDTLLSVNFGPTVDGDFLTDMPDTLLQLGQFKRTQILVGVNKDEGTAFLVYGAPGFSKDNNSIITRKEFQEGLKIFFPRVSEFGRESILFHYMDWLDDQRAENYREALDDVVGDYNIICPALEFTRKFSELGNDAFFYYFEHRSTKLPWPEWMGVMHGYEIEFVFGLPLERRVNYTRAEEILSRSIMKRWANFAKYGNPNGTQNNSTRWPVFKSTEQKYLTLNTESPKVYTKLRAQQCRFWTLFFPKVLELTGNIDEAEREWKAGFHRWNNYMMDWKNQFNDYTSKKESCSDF

With `O=C1c2cc(NS(=O)(=O)c3ccccc3F)ccc2-n2c1nc1ccccc1c2=O` [4h] the BuChE inhibition type ([1]; Lineweaver–Burk double-reciprocal plot) was “mixed-type inhibition”, the Ki ([1]; Lineweaver–Burk secondary plot) was 5.33 µM and the iNOS expression [2] was “significantly decreased the expression of COX-2 and iNOS”. For the same molecule, the LD50 at 7 days [3] was 84.8 mg/kg, the “Mortality rate (%)” value ([4]; 40.96 mg/kg) was 0% and the Number of deaths ([4]; 40.96 mg/kg) was 0. The “Mortality rate (%)” value ([4]; 51.2 mg/kg) was 0%, the Number of deaths ([4]; 51.2 mg/kg) was 0 and the “Mortality rate (%)” value ([4]; 64 mg/kg) was 16.7%. For the same molecule, the Number of deaths ([4]; 64 mg/kg) was 1, the “Mortality rate (%)” value ([4]; 80 mg/kg) was 50% and the Number of deaths ([4]; 80 mg/kg) was 3. For the same molecule, the “Mortality rate (%)” value ([4]; 100 mg/kg) was 66.7%, the Number of deaths ([4]; 100 mg/kg) was 4 and the “Cell Viability (% of Control)” value ([5]; 30 μM) was 101.23 ± 1.82 % of control. The “Cell Viability (% of Control)” value ([5]; 50 μM) was 97.44 ± 1.36 % of control, the “Cell Viability (% of Control)” value ([6]; 30 μM) was 97.84 ± 1.24 % of control and the “Cell Viability (% of Control)” value ([6]; 50 μM) was 91.33 ± 1.48 % of control.
